The values below are quoted from earlier work in patent US9222055B2, “High intensity fragrances” (TAKASAGO INTERNATIONAL CORPORATION, priority 2009, dated 2015).

Each structure is given as a SMILES string. Read-outs that look alike come from different tables or passages of the source.

The conditions of series [1]: for Readily biodegradable: Table 1.
The conditions of series [2]: Table 1, measured value where available.
For series [3] the following is noted: evidence from prior art.
Where [4] appears, read: Table 19, ingredients of Comparative Fragrance K.
Setting [5] is: Table 18, ingredients of Comparative Fragrance J.

As for `CC(=O)OCc1ccccc1` [BENZYL ACETATE, benzyl acetate], the biodegradability classification result in series [1] (OECD 301B or OECD 301F, Test Plan for Benzyl Derivatives) is on record as “readily biodegradable”. The Readily biodegradable entry in series [1] was “Yes”. Besides, in series [1] (setting [4]), the Bio-Degradable result is “Yes”.
For orientation: LogP means a log measure of how a compound divides between an organic and an aqueous phase. Turning to `CC(=O)OCCc1ccccc1` [PHENYLETHYL ACETATE, 2-phenylethyl acetate], in series [1], the Readily biodegradable result is “Yes”. Also, the LogP in series [2] is on record as 2.30.
Consider `O=Cc1ccc2c(c1)OCO2` [HELIOTROPINE, heliotropine], for which the LogP in series [2] was 1.05.
Regarding `COc1ccc(C=O)cc1` [ANISIC ALDEHYDE, anisic aldehyde], the Readily biodegradable entry in series [1] is recorded as “Yes”.
Consider `C=C(C)[C@H]1CC=C(C)CC1` [LIMONENE, limonene], for which the Readily biodegradable result in series [1] is reported as “No”. Moreover, in series [2], the LogP was 4.57.
For `CCOC(=O)CC` [ETHYL PROPIONATE, ethyl propionate], the Readily biodegradable entry in series [1] is reported as “Yes”. In series [2], the LogP is listed as 1.21.
Take `CCCCCC(=O)OCC` [ETHYL CAPROATE, ethyl caproate]: the Readily biodegradable result in series [1] is reported as “Yes”.
With `COC(=O)c1ccccc1N` [METHYL ANTHRANILATE, methyl anthranilate], the Readily biodegradable entry in series [1] is listed as “Med”.
Consider `CCOC(=O)C12CCCC1C1CCC2C1` (stereo not shown) [Ethyl tricyclodecan-2-carboxylate], for which, in series [1] (setting [5]), the Bio-Degradable result is recorded as “No”.
As for `C=CCCCCCCCCC=O` [Undecelenic aldehyde], the Bio-Degradable entry in series [1] (setting [4]) was “Yes”.
As to `CC(=O)/C(C)=C/C1C(C)=CCCC1(C)C` (stereo not shown) [Gamma methyl ionone], the Bio-Degradable entry in series [1] (setting [4]) is listed as “No”.
In the case of `CC(C=O)Cc1ccc(C(C)(C)C)cc1` (stereo not drawn) [Para tert-butyl-alpha Methyl hydrocinnamic Aldehyde], the Bio-Degradable entry in series [1] (setting [5]) was “No”. Further, in series [3], the allergen classification result is listed as “strong allergens”.
Consider `COC(=O)c1ccccc1O` [METHYL SALICYLATE, methyl salicylate], for which, in series [1], the Readily biodegradable entry is reported as “Yes”.
Turning to `CCCC(=O)OC(C)(C)Cc1ccccc1` [Dimethyl benzyl carbonyl butyrate], the Bio-Degradable entry in series [1] (setting [5]) is listed as “No”.
`CCCCOC(C)=O` [BUTYL ACETATE, butyl acetate]: the Readily biodegradable result in series [1] is listed as “Yes”. Further, in series [2], the LogP is 1.78.
As to `CC/C=C\CCOC(C)=O` [CIS-3-HEXENYL ACETATE, cis-3-hexenyl acetate], in series [1], the Readily biodegradable entry is recorded as “Yes”. For the same molecule, in series [2], the log partition coefficient (LogP) is listed as 2.34.
For `C=CC(C)(CCC=C(C)C)OC(C)=O` (stereo not shown) [Linalyl acetate], the Bio-Degradable entry in series [1] (setting [4]) is given as “No”.
For the molecule `O=C/C=C/c1ccccc1` [CINNAMIC ALDEHYDE, cinnamic aldehyde], the Readily biodegradable entry in series [1] was “Yes”. The allergen classification result in series [3] is given as “strong allergens”.
As to `CCCCCC1C(=O)CCC1CC(=O)OC` (stereo not shown) [Methyldihydrojasmonate], the Bio-Degradable result in series [1] (setting [4]) is on record as “Yes”.
As to `CCCCCCC(=O)OCC` [ETHYL HEPTANOTE, ethyl heptanoate], the Readily biodegradable result in series [1] is given as “Yes”.
For `CC(=O)OCCC(C)C` [ISOAMYL ACETATE, isoamyl acetate], the Readily biodegradable result in series [1] is listed as “Yes”. In series [2], the log partition coefficient (LogP) is given as 2.25.
As for `CC=Cc1ccc(O)c(OC)c1` [isoeugenol], in series [3], the allergen classification entry was “strong allergens”.
For the molecule `OCc1ccccc1` [BENZYL ALCOHOL, benzyl alcohol], the Readily biodegradable entry in series [1] was “Yes”.
Take `C=CCOC(=O)CCCCC` [ALLYL HEXANOATE, allyl hexanoate]: the Readily biodegradable result in series [1] is recorded as “Yes”.
Regarding `CCCCCCC1CCC(=O)O1` (stereo not shown) [DECALACTONE GAMMA, decalactone gamma], in series [1], the Readily biodegradable entry was “Yes”. Besides, the log partition coefficient (LogP) in series [2] is 2.72.
Consider `CCCCCCCC(=O)OCC` [ETHYL CAPRYLATE, ethyl caprylate], for which the Readily biodegradable entry in series [1] is on record as “Yes”.
Turning to `CC/C=C\CCOC(=O)CC` [CIS-3-HEXENYL PROPIONATE, cis-3-hexenyl propionate], the Readily biodegradable entry in series [1] was “Yes”.
Turning to `CCCCCCOC(C)=O` [HEXYL ACETATE, hexyl acetate], in series [1], the Readily biodegradable result was “Yes”.
Consider `OCCc1ccccc1` [PHENYLETHYL ALCOHOL, 2-phenylethylalcohol], for which the Readily biodegradable entry in series [1] is on record as “Yes”. Also, the Bio-Degradable entry in series [1] (setting [4]) was “Yes”.
As for `O=C1CCCCCCCCCCCC(=O)OCCO1` [Ethylene brassylate], the Bio-Degradable result in series [1] (setting [5]) and in series [1] (setting [4]) was “Yes” throughout.
As to `CC(C)=CCCC(C)=CC=O` [CITRAL, citral], in series [1] (OECD 301B, The Terpene Consortium Robust Summary), the biodegradability classification entry is on record as “readily biodegradable”. The Readily biodegradable entry in series [1] is listed as “Yes”. For the same molecule, the allergen classification result in series [3] is listed as “strong allergens”.
Regarding `COc1ccc(C)cc1` [Cresyl methyl ether], the Bio-Degradable entry in series [1] (setting [4]) is reported as “Yes”.
Regarding `CC(C)=CCCC(C)CCO` (stereo not shown) [CITRONELLOL, citronellol], the biodegradability classification result in series [1] (OECD 301F, The Terpene Consortium Robust Summary) is on record as “readily biodegradable”. In addition, in series [1], the Readily biodegradable entry was “Yes”.
As for `CCOC(=O)CC(C)=O` [Ethyl acetoaceteate], the Bio-Degradable entry in series [1] (setting [4]) is reported as “Yes”.
For the molecule `CCCCCCCCCCCC=O` [Dodecanal], the Bio-Degradable result in series [1] (setting [4]) is reported as “Yes”.
As for `CC(C)[C@@H]1CC[C@@H](C)C[C@H]1O` [L-MENTHOL, L-menthol], in series [1], the Readily biodegradable result is “No”.
In the case of `OC/C=C/c1ccccc1` [CINNAMIC ALCOHOL, cinnamic alcohol], in series [1], the Readily biodegradable entry is reported as “Yes”. In series [2], the LogP was 1.95. Besides, the allergen classification result in series [3] was “strong allergens”.
For `COc1cc(C=O)ccc1O` [VANILLIN, vanillin], the Readily biodegradable entry in series [1] was “Yes”. Besides, the Bio-Degradable entry in series [1] (setting [4]) is on record as “Yes”.
For the molecule `CCCCC/C(C=O)=C/c1ccccc1` [Amyl cinnamic aldehyde], the allergen classification result in series [3] is “strong allergens”.
Turning to `CCCCCOC(C)=O` [n-AMYL ACETATE, n-amyl acetate], in series [1], the Readily biodegradable entry was “Yes”. Also, the LogP in series [2] was 2.30.
As for `CCCCC1CCC(=O)O1` (stereo not shown) [OCTALACTONE, GAMMA, octalactone gamma], the Readily biodegradable entry in series [1] was “Yes”.
`CCCC(=O)OCC` [ETHYL BUTYRATE, ethyl butyrate]: in series [1], the Readily biodegradable result is listed as “Yes”. For the same molecule, in series [2], the log partition coefficient (LogP) is reported as 1.73.
Consider `CCCCCCC(C=O)=Cc1ccccc1` [Hexyl Cinnamic Aldehyde], for which the Bio-Degradable result in series [1] (setting [5]) was “Yes”.
In the case of `CCCCCOC(=O)CC` [n-AMYL PROPIONATE, n-amyl propionate], the Readily biodegradable entry in series [1] was “Yes”. Moreover, the LogP in series [2] was 2.66.
For the molecule `CCCCCC1COCCC1OC(C)=O` (stereo not shown) [Tetrahydro-3-penthyl-2H-pyran-4-yl acetate], the Bio-Degradable entry in series [1] (setting [5]) is recorded as “Yes”.
On to `CCC/C=C/C=O` [TRANS-2-HEXENAL, trans-2-hexenal], for which the Readily biodegradable result in series [1] is on record as “Yes”.
With `C=CC(C)(O)CCC=C(C)C` (stereo not shown) [LINALOOL, linalool], the Readily biodegradable result in series [1] is “No”. For the same molecule, the Bio-Degradable entry in series [1] (setting [5]) and in series [1] (setting [4]) was “No” in each case.
As to `CC(C)CC1CC(C)(O)CCO1` (stereo not shown) [2-isobutyl-4-methyltetrahydro-2H-pyran-4-ol], in series [1] (setting [4]), the Bio-Degradable entry is recorded as “No”.
As for `CC1=CCC(O)(C(C)C)CC1` (stereo not shown) [1-terpinen-4-ol], the Readily biodegradable entry in series [1] is recorded as “No”. The LogP in series [2] is on record as 3.26.
For the molecule `Cc1occc(=O)c1O` [VELTOL ™, 3-hydroxy-2-methyl-4-pyrone], in series [1], the Readily biodegradable result is reported as “Yes”.
`CCCc1ccc(O)c(OC)c1` [Dihydroeugenol]: the Bio-Degradable result in series [1] (setting [4]) is “No”.
For the molecule `CCCCCCOC(=O)c1ccccc1O` [Hexyl salicylate], the Bio-Degradable result in series [1] (setting [4]) was “Yes”.
`CC(=O)/C=C/C1C(C)=CCCC1(C)C` (stereo not drawn) [Alpha ionone]: the Bio-Degradable result in series [1] (setting [4]) is recorded as “No”.
On to `O=C(OCc1ccccc1)c1ccccc1O` [Benzyl Salicylate], for which the Bio-Degradable entry in series [1] (setting [5]) is given as “No”.
On to `CC(C)=CCCC(C)=CCCC(C)=CCO` [farnesol], for which the allergen classification result in series [3] is reported as “strong allergens”.
In the case of `CC1=CCC(C(C)(C)O)CC1` (stereo not drawn) [TERPINEOL, ALPHA, alpha-terpineol], the Readily biodegradable entry in series [1] is listed as “No”. In addition, the LogP in series [2] is 2.98.
